The target of test [1] is PGT122. Kind of test: Bead-based radiometric binding assay of clones prepared as cDNA/mRNA-glycopeptide fusions. To be noted: 2K CPM per sample, Protein G beads, LSC, preliminary. As for the experimental part:
antibodies, spun down briefly, placed on a magnet for 1 minute, and the eluent was transferred to an individual 0.2 mL PCR tube. The beads were washed with 50 µL of denaturing elute buffer, and the wash was placed into the same tube as the eluent. The combined eluent and wash represented the “bound” fraction. The beads were resuspended in 50 µL of denaturing elute buffer, vortexed, and directly placed into a vial with liquid scintillation cocktail for radioactivity measurements, though it was not included in calculations of fraction bound. Each of the tubes with the “unbound” and “bound” fractions were placed into vials for LSC. The tube in which the antibody and peptides were incubated were also measured by LSC, but not included in calculations of fraction bound. Fraction bound values for each antibody concentration after background adjustment were input into KaleidaGraph 4.1.1 for curve fitting to a […]
5. Clones Prepared as cDNA/mRNA-glycopeptide Fusions
Selected clones were also prepared as cDNA/mRNA-glycopeptide fusions for binding analysis. RNA (450-1000 pmol) was photo-crosslinked as described in Section IV.A.2 but with 10 µM transcribed RNA and 15 µM XL-PSO in 1X XL Buffer for annealing, and dilution to 100 µL for irradiation at 365 nm. XL-RNA was then purified by ethanol precipitation and 5% denaturing urea-PAGE with electroelution. Purified XL-RNA was translated in the presence of PDF/MAP and 3H-histidine for radiolabeling. Crude translation reactions were captured on Pierce™ Streptavidin UltraLink™ Resin (Thermo Scientific), subjected to reverse transcription, and cyclized as described for selection. Fusions were then washed and photo-eluted with 1X selection buffer instead of 0.2% (v/v) […]. […]
reverse transcription in preparation for photo-elution. Note: 2U3 was also cyclized despite having only one cysteine residue to better mimic its structure during selection. Fusions were then passed through 0.22 µm Ultrafree-MC Centrifugal Filters (MilliporeSigma), buffer exchanged by ethanol precipitation, and subjected to click reaction (5 µL) with Man9(GlcNAc)2-azide as described in Section II.A.8. Binding assays were performed analogously as with […]
as free peptides and cDNA/mRNA-glycopeptide fusions.
Name Click KD Ratio (No click : Click) KD Ratio (No click : Click) […]
a 2U3 was cyclized as a fusion but not as a free peptide.

Test [2] concerns the target PGT122. The experiment in a line: Bead-based radiometric binding assay of ribosomally synthesized free peptides. To be noted: free 3H-histidine-labelled peptide, no click glycosylation; 0, 100, 200, 400 nM antibody, 1 h room temperature, Protein G beads, LSC; Michaelis-Menten fit; preliminary. The procedure:
The protocol used for cyclization while captured on resin was as follows: To 20 µL of crude translated peptide was added 80 µL of bind buffer with BME (50 mM Tris-HCl, pH 7.8, 300 mM NaCl, 5 mM BME) and 20 µL of HisPur™ Ni-NTA Resin (ThermoScientific). The mixture was tumbled at room temperature for 1 hour. Next, the mixture was spun down at 17,000 ×g, and the supernatant was carefully removed from the loosely-pelleted agarose.
The resin was washed three times with 160 µL of cyclization wash buffer with TCEP (50 mM Tris-HCl, pH 8.0, […]). To the resin was then added 160 µL of free peptide cyclization buffer (50 mM Tris-HCl, pH 8.0, 300 mM NaCl, 0.5 mM TCEP, 3.3 mM m-dibromoxylene, 33% (v/v) MeCN), and the mixture was covered in foil and tumbled at room temperature for 30 minutes. The supernatant was removed and 160 µL of cyclization wash buffer with BME (50 mM Tris-HCl, pH 8.0, 300 mM NaCl, 10 mM BME, 33% (v/v) MeCN) was added. The suspension was tumbled at room temperature for 10 minutes without aluminum foil to quench the reaction. The reaction was spun down, and the supernatant was removed. Next, the resin was resuspended in wash buffer (50 mM Tris-HCl, pH 7.8, 5 mM BME) and transferred to a 0.22 µm Ultrafree-MC Centrifugal Filter (MilliporeSigma). The tube was rinsed with 80 µL of wash buffer, and the rinse was added to the filter. The filter was then spun down at 10,000 ×g for 1 minute. The resin in the filter was washed twice with 160 µL of wash buffer. To elute the peptide, 20 µL 0.2% (v/v) TFA was added to the resin and allowed to sit at room temperature for 2 minutes before spinning down and collecting in a new tube. The elution step was carried out once more, with the eluent collected separately.
4. Radioactive Peptides for Bead-based Radiometric Binding Assay
For binding analysis, translation (50 µL) was carried out in the presence of PDF/MAP and 3H-histidine for radiolabeling. The crude peptides were purified by Ni-NTA agarose and, if the sequence contained two cysteine residues, was cyclized while captured on the Ni-NTA resin. The peptide eluents were combined and dialyzed as follows: To the combined eluents was added a solution of Triton X-100 in water for a final concentration of 0.1%.
Next, the peptides were dialyzed against 0.1% (v/v) Triton X-100 using a Slide-A-Lyzer™ MINI device (0.1 mL capacity, 3.5 kDa MWCO) (Thermo Scientific) at room temperature overnight. The dialyzed peptides were retrieved from the devices. The peptide solutions were concentrated to dryness by speedvac for the click reaction. […]
room temperature. While tumbling, Dynabeads™ Protein G (Invitrogen) were equilibrated with 1X selection buffer as follows: Steps were carried out using a multi-channel pipettor where possible. For each sequence, 8 µL of Protein G bead suspension was transferred to a 0.2 mL PCR tube in a strip. Next, 64 µL (8 bead vol.) of 1X selection buffer was added to the beads. The mixture was resuspended by gently vortexing, spun down briefly, and placed on a magnet for 1 minute. The supernatant was removed, and this wash was repeated two more times. The final supernatant was removed just prior to addition of the incubated peptide/antibody mixture. The mixture was allowed to tumble at room temperature for 30 minutes to capture antibodies and bound peptides. Next, the suspension was briefly spun down, placed on a magnet, and the supernatant was transferred to an individual 0.2 mL PCR tube. To wash the beads, 16 µL of 1X selection buffer was added, gently vortexed, spun down briefly, placed on a magnet for 1 minute, and the wash was transferred to the same PCR tube as the supernatant. This wash step was repeated twice more for a total of three washes, saved altogether with the supernatant as the “unbound” fraction. The beads were then resuspended in 50 µL of denaturing elute buffer. The suspension was heated at 95 °C for 5 minutes to denature […]

Test [3] has as its system HIV pseudovirus panel. To be noted: ref number not given, cited from earlier work. An excerpt:
We have sought to mimic HMP epitopes without using either the entire Env protein, which contains a plethora of “distracting” epitopes that easily elicit off-target antibodies; − or short glycopeptides directly derived from the Env sequence, which may not sufficiently recapitulate the HMP structure without the conformational support of the remaining Env protein. Aiming to design glycostructures that better mimic the glycan presentation in the HMP, we have pioneered various techniques for the directed evolution of DNA, , RNA, F-RNA, or peptide-supported , glycan clusters.

Setting [4] is: cDNA/mRNA-glycopeptide fusion, click-glycosylated with Man9(GlcNAc)2-azide.
Setting [5] is: cDNA/mRNA-peptide fusion, no click glycosylation.
[6] abbreviates: diverse/representative HIV pseudovirus panel.

The values below come from publication PMC12291119, “In Vitro Selection of Cyclized, Glycosylated Peptide Antigens That Tightly Bind HIV High Mannose Patch Antibodies” (ACS Central Science, 2025).

Ends that are not written are not given here.

By Kd is commonly meant the constant that tells how readily two partners part at equilibrium. Consider “AFIAYYFDLSQPNLHSPNFTLKIGDIREAQCMLTCDSAKPNPRVVPILALLI (also: sidechain bridge or staple (positions not given here)) [2B3c, ribosomally synthesized PGT122 selection clone, cyclized]”, for which the Kd in test [1] (setting [4]) came to 140 nM; in test [1] (setting [5]) it was 99.7 nM; in test [2] it was 4490 nM.

Turning to “AHSLFNFQVRLKQLPLDANGAVIGDIRIAECMNHTYTPLTFYIYSNHPTDIQ [GB1, ribosomally synthesized gl-PGT121 selection clone]”, the dissociation constant (Kd) in test [2] was determined as 181 nM.

Turning to “AKTKTYLIRFHLDILPNDNLRSQKIRLIFGDKATVKGMITFLNDSELEWNFE [2U1, ribosomally synthesized PGT122 selection clone, tested with and without click glycosylation]”, the Kd in test [1] (setting [4]) was 29.8 nM; in test [1] (setting [5]), 82.5 nM.

For the substance “AKTRTPMNLSGKSNIRYFFTIDNSTMFEDLFMRFPRSKEYHIELEEFKDLIR [2U7]”, the Kd stood at 139 nM in test [1] (setting [4]), 300 nM in test [1] (setting [5]) and 1430 nM in test [2].

As to “ALNLYQIVEFTIDESNDIVQLQIGDIRTADCMSLNKECYNIIFFSWDNHGKN (also: sidechain bridge or staple (positions not given here)) [2B4c, ribosomally synthesized PGT122 selection clone, cyclized]”, the dissociation constant (Kd) in test [1] (setting [4]) was determined as 155 nM; in test [1] (setting [5]), 44.4 nM; in test [2], 158 nM.

Consider “ANNFICIRNIGDIRSARCMNVSAGRYAPYREFYFDITYDDFNKNVNIVITPV (also: sidechain bridge or staple (positions not given here)) [2B8c, ribosomally synthesized PGT122 selection clone, cyclized]”, for which the Kd in test [1] (setting [4]) was 108 nM; in test [1] (setting [5]), 176 nM.

“ANPRIIFFELSIRNNSLKLLRWHDTQGIFHDSMTELSQHAELPRFKFHSNAA [GU1, ribosomally synthesized gl-PGT121 selection clone]” showed a Kd in test [2] of 156 nM.

In the case of “ANPSFSVQFIVDLIGPNVMRITLSNKPFATICPITEGESHISKRFNFQLTIS [2U3c, ribosomally synthesized PGT122 selection clone; cyclized as a fusion but not as a free peptide]”, the equilibrium dissociation constant (Kd) came out at 449 nM in test [1] (setting [4]) and 281 nM in test [1] (setting [5]).

“AQYIDWEIDINQVPNQMNLSKPTWKSDITINKVKWSFYININQASNENTDNI [2U6, ribosomally synthesized PGT122 selection clone]”: the Kd in test [1] (setting [4]) stood at 173 nM; in test [1] (setting [5]) it was 96.7 nM; in test [2] it was 166 nM.

Consider “ATLNIFSNFSIEPDSFYEIVLPIGDIRIAPCMSSFNRNGSTNNCYHFEINLF (also: sidechain bridge or staple (positions not given here)) [2B5c, ribosomally synthesized PGT122 selection clone, cyclized]”, for which the Kd stood at 85.9 nM in test [1] (setting [4]), 314 nM in test [1] (setting [5]) and 212 nM in test [2].

For “AYPVYLRLPIGDIRIASCMFGDEPNTWTRDELNDYFYTESYNPQPITITFKC (also: sidechain bridge or staple (positions not given here)) [2B2c, ribosomally synthesized PGT122 selection clone, cyclized]”, the dissociation constant Kd was found to be 116 nM in test [1] (setting [4]), 89 nM in test [1] (setting [5]) and 1650 nM in test [2].

For “AYSIHFVCDINETPTNTSKAIFSIKCDITTPESTTRQLMITKHYHFPPTGTR (also: sidechain bridge or staple (positions not given here)) [2U8c, ribosomally synthesized PGT122 selection clone, cyclized]”, the figures for the dissociation constant (Kd) in test [1] (setting [4]) and in test [1] (setting [5]) were 48.4 nM and 173 nM, respectively.

“AYVISFSIDQPDLDRPNIIRISIGDIRSAKCMKLDTINFAYRDDSSEVCYEK (also: sidechain bridge or staple (positions not given here)) [2B7c, ribosomally synthesized PGT122 selection clone, cyclized]”: the equilibrium dissociation constant (Kd) in test [1] (setting [4]) came to 143 nM; in test [1] (setting [5]), 66.2 nM; in test [2] it was 29.8 nM.

On to “PGT128: broad and very potent HIV bnAb binding the High Mannose Patch”, for which, in test [3] (setting [6]), the “breadth (fraction of HIV pseudovirus panel neutralized)” value is 72% and the “median IC50” value was 0.02 µg/mL. The “potency (EC50)” value in test [3] (neutralization potency) was 0.02 µg/mL.
